This is an account of results in patent publication US20200207759A1, “NEW PROPANAMINE DERIVATIVES FOR TREATING PAIN AND PAIN RELATED CONDITIONS” (ESTEVE PHARMACEUTICALS, S.A., priority 2017, published 2020).

The structures appear in SMILES notation. A value given as a limit tells only on which side of the number the result lay.

Assay [1] deals with Human α2δ-1 subunit of Cav2.2 calcium channel (Homo sapiens, UniProt P54289). Put plainly: Binding assay to human α2δ-1 subunit of Cav2.2 calcium channel, [3H]-Gabapentin. Conditions: human α2δ-1 enriched membranes, 15 nM [3H]-Gabapentin; read-out: Ki (nM) alpha2delta Hum. How it is done: Binding Assay to Human α2δ-1 Subunit of Cav2.2 Calcium Channel.
Sequence of Human α2δ-1 subunit of Cav2.2 calcium channel (P54289 25-1103): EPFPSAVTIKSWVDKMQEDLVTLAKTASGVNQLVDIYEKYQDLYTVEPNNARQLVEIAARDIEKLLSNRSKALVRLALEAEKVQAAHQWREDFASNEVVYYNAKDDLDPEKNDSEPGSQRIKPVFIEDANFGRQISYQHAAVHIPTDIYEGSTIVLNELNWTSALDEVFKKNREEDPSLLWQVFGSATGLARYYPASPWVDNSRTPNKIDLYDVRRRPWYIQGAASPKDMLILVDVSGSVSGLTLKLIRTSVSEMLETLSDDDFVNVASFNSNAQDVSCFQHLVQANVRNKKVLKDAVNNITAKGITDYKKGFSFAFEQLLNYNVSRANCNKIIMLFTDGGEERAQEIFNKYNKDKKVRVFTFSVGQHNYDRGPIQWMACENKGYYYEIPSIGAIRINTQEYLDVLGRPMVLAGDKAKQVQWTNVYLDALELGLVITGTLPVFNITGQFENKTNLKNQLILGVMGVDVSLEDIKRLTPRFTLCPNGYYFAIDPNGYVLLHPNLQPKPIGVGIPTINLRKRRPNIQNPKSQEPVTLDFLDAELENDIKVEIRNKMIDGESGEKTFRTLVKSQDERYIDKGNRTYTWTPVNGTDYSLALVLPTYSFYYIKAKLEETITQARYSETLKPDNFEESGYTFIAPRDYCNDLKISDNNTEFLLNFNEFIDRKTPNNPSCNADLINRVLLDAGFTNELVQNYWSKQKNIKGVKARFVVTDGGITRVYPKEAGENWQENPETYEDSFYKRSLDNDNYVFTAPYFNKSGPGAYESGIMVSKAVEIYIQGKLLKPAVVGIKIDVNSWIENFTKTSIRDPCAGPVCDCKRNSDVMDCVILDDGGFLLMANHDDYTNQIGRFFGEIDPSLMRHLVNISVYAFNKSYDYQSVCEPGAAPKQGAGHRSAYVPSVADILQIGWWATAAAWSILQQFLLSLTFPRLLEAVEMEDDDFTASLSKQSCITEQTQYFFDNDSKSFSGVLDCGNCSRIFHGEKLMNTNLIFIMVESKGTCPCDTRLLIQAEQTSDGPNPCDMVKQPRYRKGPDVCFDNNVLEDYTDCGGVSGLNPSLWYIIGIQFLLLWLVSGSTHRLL
Human α2δ-1 enriched membranes (2.5 μg) were incubated with 15 nM of radiolabeled [3H]-Gabapentin in assay buffer containing Hepes-KOH 10 mM, pH 7.4.
NSB (non specific binding) was measured by adding 10 μM pregabalin. After 60 min incubation at 27° C., binding reaction was terminated by filtering through Multiscreen GF/C (Millipore) presoaked in 0.5% polyethyleneimine in Vacuum Manifold Station, followed by 3 washes with ice-cold filtration buffer containing 50 mM Tris-HCl, pH 7.4.
Filter plates were dried at 60° C. for 1 hour and 30 μl of scintillation cocktail were added to each well before radioactivity reading.
Readings were performed in a Trilux 1450 Microbeta radioactive counter (Perkin Elmer).

Assay [2] concerns the target Human norepinephrine transporter (NET) (Homo sapiens, UniProt P23975). Put plainly: Binding assay to human norepinephrine transporter (NET), [3H]-Nisoxetin. The settings on record: human NET enriched membranes, 5 nM [3H]-Nisoxetin; read-out: Ki (nM) NET Hum. How it is done: Binding Assay to Human Norepinephrine Transporter (NET).
Human norepinephrine transporter (NET) enriched membranes (5 μg) were incubated with 5 nM of radiolabeled [3H]-Nisoxetin in assay buffer containing 50 mM Tris-HCl, 120 mM NaCl, 5 mM KCl, pH 7.4.
NSB (non specific binding) was measured by adding 1 μM. After 60 min incubation at 4° C., binding reaction was terminated by filtering through Multiscreen GF/C (Millipore) presoaked in 0.5% polyethyleneimine in Vacuum Manifold Station, followed by 3 washes with ice-cold filtration buffer containing 50 mM Tris-HCl, 0.9% NaCl, pH 7.4. Filter plates were dried at 60° C. for 1 hour and 30 μl of scintillation cocktail were added to each well before radioactivity reading.

Sequence of Human norepinephrine transporter (NET) (P23975 whole entry): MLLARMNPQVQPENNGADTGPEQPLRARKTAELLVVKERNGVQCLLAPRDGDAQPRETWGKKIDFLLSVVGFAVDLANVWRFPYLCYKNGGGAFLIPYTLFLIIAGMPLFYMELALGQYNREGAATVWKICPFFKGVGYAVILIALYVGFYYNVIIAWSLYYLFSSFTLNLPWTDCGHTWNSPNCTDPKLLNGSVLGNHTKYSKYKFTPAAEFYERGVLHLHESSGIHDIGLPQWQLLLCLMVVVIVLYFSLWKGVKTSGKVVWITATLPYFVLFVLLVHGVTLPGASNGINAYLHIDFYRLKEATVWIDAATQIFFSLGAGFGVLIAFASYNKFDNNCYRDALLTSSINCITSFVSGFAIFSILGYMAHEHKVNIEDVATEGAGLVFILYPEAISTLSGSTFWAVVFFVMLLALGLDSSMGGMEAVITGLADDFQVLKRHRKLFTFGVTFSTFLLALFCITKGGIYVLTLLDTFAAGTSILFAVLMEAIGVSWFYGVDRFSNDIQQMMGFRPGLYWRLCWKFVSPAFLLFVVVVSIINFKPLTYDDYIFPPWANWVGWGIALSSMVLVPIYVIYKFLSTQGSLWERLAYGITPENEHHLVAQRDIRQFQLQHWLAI

`CNCC[C@H](c1cscc1C)N1CCc2ncccc21` [Example 51, (R)-3-(2,3-Dihydro-1H-pyrrolo[3,2-b]pyridin-1-yl)-N-methyl-3-(4-methylthiophen-3-yl)propan-1-amine]: the Ki in assay [1] was at least 3000 nM; in assay [2], above 1000 nM.
Consider `CNCC[C@H](c1ccsc1)N1CCc2ncc(F)cc21` [Example 28, (R)-3-(6-Fluoro-2,3-dihydro-1H-pyrrolo[3,2-b]pyridin-1-yl)-N-methyl-3-(thiophen-3-yl)propan-1-amine], for which the Ki in assay [1] lay within 100 to 500 nM; in assay [2], 500 to 1000 nM.
In the same order, the values of `CNCC[C@H](c1ccsc1)N1CCc2ncccc21` [Example 22, (R)-3-(2,3-Dihydro-1H-pyrrolo[3,2-b]pyridin-1-yl)-N-methyl-3-(thiophen-3-yl)propan-1-amine] are 500 to 3000 nM and above 1000 nM.
Take `CNCCC(c1cccs1)N1CCc2ccncc21` (centres unmarked) [Example 2, 3-(2,3-Dihydro-1H-pyrrolo[2,3-c]pyridin-1-yl)-N-methyl-3-(thiophen-2-yl)propan-1-amine]: the Ki is 500 to 3000 nM in assay [1] and above 1000 nM in assay [2].
Consider `CNCCC(c1cccs1)N1CCc2cc(F)ccc21` (centres unmarked) [Example 72, 3-(5-Fluoroindolin-1-yl)-N-methyl-3-(thiophen-2-yl)propan-1-amine], for which the Ki in assay [1] was at least 3000 nM; in assay [2], 100 to 500 nM.
With `CNCCC(c1cccs1)N1CCc2c(C#N)cccc21` (centres unmarked) [Example 95, 1-(3-(Methylamino)-1-(thiophen-2-yl)propyl)indoline-4-carbonitrile], the Ki is 100 to 500 nM in assay [1] and below 100 nM in assay [2].
Taken in the same sequence, the figures for `CNCCC(c1ccsc1)N1CC(C)(C)c2nc(C)c(F)cc21` (centres unmarked) [Example 71, 3-(6-Fluoro-3,3,5-trimethyl-2,3-dihydro-1H-pyrrolo[3,2-b]pyridin-1-yl)-N-methyl-3-(thiophen-3-yl)propan-1-amine] were below 100 nM and 100 to 500 nM.
Take `CCc1cnc2c(c1)N([C@@H](CCNC)c1ccsc1)CC2` [Example 77, (S)-3-(6-Ethyl-2,3-dihydro-1H-pyrrolo[3,2-b]pyridin-1-yl)-N-methyl-3-(thiophen-3-yl)propan-1-amine]: the Ki in assay [1] lay in the range of 500 to 3000 nM; in assay [2] it was 100 to 500 nM.
Taken in the same sequence, the figures for `CNCC[C@H](c1ccsc1)N1CC(C)(C)c2nc(C)c(F)cc21` [Example 90, (R)-3-(6-Fluoro-3,3,5-trimethyl-2,3-dihydro-1H-pyrrolo[3,2-b]pyridin-1-yl)-N-methyl-3-(thiophen-3-yl)propan-1-amine] were below 100 nM and above 1000 nM.
Take `CNCC[C@H](c1cccc(F)c1)N1CCc2ncccc21` [Example 83, (R)-3-(2,3-Dihydro-1H-pyrrolo[3,2-b]pyridin-1-yl)-3-(3-fluorophenyl)-N-methylpropan-1-amine]: the figures for the Ki in assay [1] and in assay [2] were at least 3000 nM and 100 to 500 nM, respectively.
As to `CNCCC(c1cccs1)N1CC(C)(C)c2nc(OC)ccc21` (centres unmarked) [Example 99, 3-(5-Methoxy-3,3-dimethyl-2,3-dihydro-1H-pyrrolo[3,2-b]pyridin-1-yl)-N-methyl-3-(thiophen-2-yl)propan-1-amine], the Ki in assay [1] and in assay [2] was 100 to 500 nM each time.
On to `CNCCC(c1cccs1)N1CCc2c(F)cc(F)cc21` (centres unmarked) [Example 68, 3-(4,6-Difluoroindolin-1-yl)-N-methyl-3-(thiophen-2-yl)propan-1-amine], for which the Ki in assay [1] is 500 to 3000 nM; in assay [2], below 100 nM.
On to `CNCCC(c1cccs1)N1CCc2c(F)cccc21` (centres unmarked) [Example 67, 3-(4-Fluoroindolin-1-yl)-N-methyl-3-(thiophen-2-yl)propan-1-amine], for which the values for the Ki in assay [1] and in assay [2] were 500 to 3000 nM and below 100 nM, respectively.
For `CNCCC(c1cccs1)N1CCc2ncccc21` (centres unmarked) [Example 3, 3-(2,3-Dihydro-1H-pyrrolo[3,2-b]pyridin-1-yl)-N-methyl-3-(thiophen-2-yl)propan-1-amine], the Ki in assay [1] lay within 500 to 3000 nM; in assay [2] it was 500 to 1000 nM.
`CNCC[C@@H](c1cccs1)N1CC(C)(C)c2ncc(C#N)cc21` [Example 115, (S)-3,3-Dimethyl-1-(3-(methylamino)-1-(thiophen-2-yl)propyl)-2,3-dihydro-1H-pyrrolo[3,2-b]pyridine-6-carbonitrile]: the Ki in assay [1] is below 100 nM.
With `CNCC[C@H](c1cccs1)N1c2ccccc2C[C@@H]1C` [Example 118, (R)—N-methyl-3-((S)-2-methylindolin-1-yl)-3-(thiophen-2-yl)propan-1-amine], the figures for the Ki in assay [1] and in assay [2] were at least 3000 nM and above 1000 nM, respectively.
In the same order, the values of `CNCC[C@@H](c1cccc(F)c1)N1CC(C)(C)c2ncccc21` [Example 84, (S)-3-(3,3-Dimethyl-2,3-dihydro-1H-pyrrolo[3,2-b]pyridin-1-yl)-3-(3-fluorophenyl)-N-methylpropan-1-amine] are at least 3000 nM and 100 to 500 nM.
Taken in the same sequence, the figures for `CNCC[C@@H](c1cccs1)N1CCc2nc(C(C)C)ccc21` [Example 49, (S)-3-(5-Isopropyl-2,3-dihydro-1H-pyrrolo[3,2-b]pyridin-1-yl)-N-methyl-3-(thiophen-2-yl)propan-1-amine] were at least 3000 nM and above 1000 nM.
Consider `CNCCC(c1cccs1)N1CCc2nc(C)ccc21` (centres unmarked) [Example 11, N-methyl-3-(5-methyl-2,3-dihydro-1H-pyrrolo[3,2-b]pyridin-1-yl)-3-(thiophen-2-yl)propan-1-amine], for which the Ki in assay [1] was in the range of 100 to 500 nM; in assay [2], 500 to 1000 nM.
In the same order, the values of `CNCC[C@@H](c1cccs1)N1CCc2ncc(C(C)C)cc21` [Example 38, (S)-3-(6-Isopropyl-2,3-dihydro-1H-pyrrolo[3,2-b]pyridin-1-yl)-N-methyl-3-(thiophen-2-yl)propan-1-amine] are at least 3000 nM and above 1000 nM.
Taken in the same sequence, the figures for `CNCC[C@@H](c1cccs1)N1CCc2ncc(F)cc21` [Example 27, (S)-3-(6-Fluoro-2,3-dihydro-1H-pyrrolo[3,2-b]pyridin-1-yl)-N-methyl-3-(thiophen-2-yl)propan-1-amine] were 100 to 500 nM and above 1000 nM.
As to `CNCCC(c1cccs1)N1CC(C)(C)c2ncc(Cl)cc21` (centres unmarked) [Example 73, 3-(6-Chloro-3,3-dimethyl-2,3-dihydro-1H-pyrrolo[3,2-b]pyridin-1-yl)-N-methyl-3-(thiophen-2-yl)propan-1-amine], the Ki is 100 to 500 nM in assay [1] and above 1000 nM in assay [2].
Consider `CNCC[C@H](c1cccs1)N1CCc2ncc(F)cc21` [Example 26, (R)-3-(6-Fluoro-2,3-dihydro-1H-pyrrolo[3,2-b]pyridin-1-yl)-N-methyl-3-(thiophen-2-yl)propan-1-amine], for which the figures for the Ki in assay [1] and in assay [2] were 100 to 500 nM and above 1000 nM, respectively.
For `CNCC[C@H](c1nccs1)N1CCc2ncccc21` [Example 54, (R)-3-(2,3-Dihydro-1H-pyrrolo[3,2-b]pyridin-1-yl)-N-methyl-3-(thiazol-2-yl)propan-1-amine], the Ki in assay [1] was at least 3000 nM; in assay [2] it was above 1000 nM.
For `NCCC(c1cccs1)N1CCc2ncccc21` (centres unmarked) [Example 9, 3-(2,3-Dihydro-1H-pyrrolo[3,2-b]pyridin-1-yl)-3-(thiophen-2-yl)propan-1-amine], the values for the Ki in assay [1] and in assay [2] were at least 3000 nM and above 1000 nM, respectively.
In the same order, the values of `CNCC[C@@H](c1cccs1)N1CCc2c(C#N)cccc21` [Example 112, (S)-1-(3-(methylamino)-1-(thiophen-2-yl)propyl)indoline-4-carbonitrile] are 100 to 500 nM and above 1000 nM.
In the case of `CNCC[C@@H](c1cc(C)cs1)N1CCc2ncccc21` [Example 57, (S)-3-(2,3-Dihydro-1H-pyrrolo[3,2-b]pyridin-1-yl)-N-methyl-3-(4-methylthiophen-2-yl)propan-1-amine], the figures for the Ki in assay [1] and in assay [2] were 500 to 3000 nM and above 1000 nM, respectively.
Taken in the same sequence, the figures for `CNCCC(c1ccsc1)N1CC(C)(C)c2ncccc21` (centres unmarked) [Example 13, 3-(3,3-Dimethyl-2,3-dihydro-1H-pyrrolo[3,2-b]pyridin-1-yl)-N-methyl-3-(thiophen-3-yl)propan-1-amine] were 500 to 3000 nM and 500 to 1000 nM.
In the same order, the values of `CNCC[C@H](c1ccsc1)N1CC(C)(C)c2nc(C(F)(F)F)ccc21` [Example 108, (R)-3-(3,3-dimethyl-5-(trifluoromethyl)-2,3-dihydro-1H-pyrrolo[3,2-b]pyridin-1-yl)-N-methyl-3-(thiophen-3-yl)propan-1-amine] are 100 to 500 nM and above 1000 nM.
Take `CNCC[C@H](c1cccs1)N1CC(C)(C)c2ncc(C#N)cc21` [Example 116, (R)-3,3-dimethyl-1-(3-(methylamino)-1-(thiophen-2-yl)propyl)-2,3-dihydro-1H-pyrrolo[3,2-b]pyridine-6-carbonitrile]: the Ki in assay [1] lay in the range of 500 to 3000 nM.
As for `CCNCCC(c1cccs1)N1CC(C)(C)c2ncc(C#N)cc21` (centres unmarked) [Example 101, 1-(3-(Ethylamino)-1-(thiophen-2-yl)propyl)-3,3-dimethyl-2,3-dihydro-1H-pyrrolo[3,2-b]pyridine-6-carbonitrile], in assay [1], the Ki is below 100 nM.
